Laboratory results: patent US10351559B2, “Maleate salts of a B-RAF kinase inhibitor, crystalline forms, methods of preparation, and uses therefore” (BeiGene, Ltd., priority 2015, dated 2019)

Tests used:
[1] = hygroscopicity (moisture sorption) by DVS; assay type: physicochemical; conditions: from 0 to 80% RH
Description: The free base of Compound 1 was obtained originally as an amorphous solid, which is slightly hygroscopic with 2.2% water gain from 0 to 80% RH. No form transformation was observed after dynamic vapor sorption (DVS).

[2] = short-term stability study (1 week, 60° C. and 40° C./75% RH); assay type: physicochemical
Method: Weighed about 2 mg (For XRPD: 10 mg) of each of the above salts in a 40 mL glass vial, separately. The free base form was used as control. The closed samples were capped and sealed with parafilm, while the opened samples were covered by aluminum foil with pinhole. All the samples were stored in stability chamber or dry oven at the corresponding conditions (60° C. and 40° C./75% RH) for 1 week.

aqueous solubility study = assay type: physicochemical; conditions: listed as free base of Compound 1
CYP3A = experiment: CYP isoforms responsible for metabolism; assay type: in vitro ADME
[3] = pharmacokinetic comparison of sesqui-maleate and free base, oral; assay type: in vivo, Beagle dogs; conditions: dogs, oral dose 1 mg/kg (free base); listed as Free Base (Lyophilized Amorphous Form), 1 mg/kg
Description: Drugs and reagents: Crystalline Form A* of Compound 1 Sesqui-Maleate with particle sizes of D90=4.1 um, D10=1.5 um, D50=2.4 um after micronization. The material content (purity) was not less than 98.0%.
Experiment animals: Beagle dogs, male and female.
Pharmaceutical preparation: Weigh the appropriate amount of each substance and disperse in 0.5% sodium carboxymethyl cellulose (for the free base of Compound 1) or 0.5% methyl cellulose solution (for Compound 1 Sesqui-Maleate). Prepare a suspension at the desired concentration of Compound 1. All the doses and concentrations of Compound 1 were calculated with free base in this study.
Administration and sample collection: The dosing solutions will be freshly prepared prior to dose administration. The actual body weights and actual volume injected will be recorded accordingly. The dogs were fasted overnight and were allowed to intake food four hours after dosing. Each suspension was administrated orally to dogs at a dose ranged from 0.5 to 15 mg/kg. Blood samples (˜1.0 mL) will be collected at pre-dose and at different times up to 36 hours postdosing via cephalic vein plexus. Whole blood will be processed by centrifugation and plasma samples will be collected and kept at freezer prior to analysis. Plasma samples were processed by protein precipitation. Concentrations of Compound 1 in the plasma samples were determined using a validated liquid chromatography-tandem mass spectrometry (LC-MS/MS) method. The plasma concentration-time data were analyzed using a non-compartmental model using Pharsight WinNonlin.

tissue distribution = assay type: in vivo; conditions: various tissues, brain
[4] = test system: BRAF V600E and KRAS cancers; experiment: Phase I clinical study; assay type: in vivo, human
[5] = 16 KRAS cancer patients treated

Compound | water (weight) gain [1] | TRS % ([2]; 0 day) | TRS % ([2]; 40° C./75% RH, 1 week) | TRS % ([2]; 60° C., 1 week) | chemical degradation ([2]; after one week at 60° C. and 40° C./75% RH) | appearance by visual observation ([2]; both conditions after 1 week) | solubility in water (aqueous solubility study) | aqueous solubility (aqueous solubility study; water, LOQ at 0.001 mg/mL) | TRS % ([2]; 0 day, listed as API free base) | TRS % ([2]; 40° C./75% RH, 1 week, listed as API free base) | TRS % ([2]; 60° C., 1 week, listed as API free base) | CYP isoform responsible for metabolism (CYP3A) | Cmax [3] | Dose-Normalized AUC0-inf [3] | tissue distribution (tissue distribution) | number of PR [4, 5] | patients survived more than 2.2 months [4, 5] | clinical response ([4]; BRAF V600E CRC patients) | clinical response ([4]; BRAF V600E PTC patients) | clinical response ([4]; BRAF V600E melanoma patients)
2-hydroxyethanesulfonate | around 4% | 0.08% | 0.51% | 1.16% | showed degradations | no change | – | – | – | – | – | – | – | – | – | – | – | – | – | –
O=C1CCc2c(Oc3ccc4c(c3)[C@@H]3[C@H](O4)[C@H]3c3nc4ccc(C(F)(F)F)cc4[nH]3)ccnc2N1 [Compound 1, 5-(((1R,1aS,6bR)-1-(6-(trifluoromethyl)-1H-benzo[d]imidazol-2-yl)-1a,6b-dihydro-1H-cyclopropa[b]benzofuran-5-yl)oxy)-3,4-dihydro-1,8-naphthyridin-2(1H)-one] | 2.2% | – | – | – | – | – | substantially insoluble in water | < 1 µg/mL | 0.12% | 0.11% | 0.12% | CYP3A was the major CYP isoform | 257 ng/mL | 1512 ng·kg·h/mL/mg | widely distributed to various tissues, but was low in brain tissue | 3 PR | at least 12 patients | some anti-tumor activities | partial responses | partial responses
